# Measurements published in patent US9556098B2, “Reduced coenzyme Q10 crystal having excellent stability” (KANEKA CORPORATION, priority 2011, dated 2017).
# Experiments:
# Assay type in all cases: physicochemical
# [1] = Sticking property due to electrostatic charge during pulverization by a mortar; settings: collection by stainless spatula
# Experimental: The inside of a 300 mL reaction flask (made of heat resistant glass) was replaced with nitrogen, and thereafter 40 g of commercially available reduced coenzyme Q10 (produced by Kaneka Corporation, conventionally known reduced coenzyme Q10 crystal) and 60 g of n-hexane were charged thereto and warmed to 40° C. with stirring to completely dissolve the reduced coenzyme Q10 in n-hexane. The solution was cooled to 25° C. at a cooling rate of 10° C./hour, then kept at 25° C. for 96 hours while being continuously stirred, and subjected to filtration and drying (drying under reduced pressure, 20 to 40° C.) to provide a crystal. From the result of analysis by DSC, the crystal was confirmed to have an endothermic peak indicating melting at 54.2° C. during temperature rise at a rate of 5° C./min, and an endothermic peak indicating melting at 51.6° C. during temperature rise at a rate of 1° C./min. In addition, as the result of analysis by powder X-ray diffraction, characteristic peaks at diffraction angles (2θ±0.2°) of 11.50°, 18.26°, 19.30°, 22.30°, 23.00° and 33.14° were observed as shown in FIG. 1. […] From the above analysis results, it was confirmed that the reduced coenzyme Q10 crystal obtained in the present Example was in a different crystal form from the conventionally known reduced coenzyme Q10 crystal. […]
# [2] = Solubility of the crystal in hexane; settings: n-hexane, temperature of 25° C.
# Experimental: The inside of a 300 mL reaction flask (made of heat resistant glass) was replaced with nitrogen, and thereafter 40 g of commercially available reduced coenzyme Q10 (produced by Kaneka Corporation, conventionally known reduced coenzyme Q10 crystal) and 60 g of n-hexane were charged thereto and warmed to 40° C. with stirring to completely dissolve the reduced coenzyme Q10 in n-hexane. The solution was cooled to 25° C. at a cooling rate of 10° C./hour, then kept at 25° C. for 96 hours while being continuously stirred, and subjected to filtration and drying (drying under reduced pressure, 20 to 40° C.) to provide a crystal. From the result of analysis by DSC, the crystal was confirmed to have an endothermic peak indicating melting at 54.2° C. during temperature rise at a rate of 5° C./min, and an endothermic peak indicating melting at 51.6° C. during temperature rise at a rate of 1° C./min. In addition, as the result of analysis by powder X-ray diffraction, characteristic peaks at diffraction angles (2θ±0.2°) of 11.50°, 18.26°, 19.30°, 22.30°, 23.00° and 33.14° were observed as shown in FIG. 1. […] From the above analysis results, it was confirmed that the reduced coenzyme Q10 crystal obtained in the present Example was in a different crystal form from the conventionally known reduced coenzyme Q10 crystal. The solubility of the resulting crystal in hexane was measured, and found to be 9% by weight at a temperature of 25° C.
# [3] = Solubility of the crystal in ethanol; settings: temperature of 30° C.
Structure (SMILES),sticking property due to electrostatic charge [1],solubility in hexane [2],solubility in ethanol [3]
"COc1c(O)c(C)c(C/C=C(\C)CC/C=C(\C)CC/C=C(\C)CC/C=C(\C)CC/C=C(\C)CC/C=C(\C)CC/C=C(\C)CC/C=C(\C)CC/C=C(\C)CCC=C(C)C)c(O)c1OC [Comparative Example 1, reduced coenzyme Q10]",exhibited remarkable sticking property,36.5 % by weight,
"COc1c(O)c(C)c(C/C=C(\C)CC/C=C(\C)CC/C=C(\C)CC/C=C(\C)CC/C=C(\C)CC/C=C(\C)CC/C=C(\C)CC/C=C(\C)CC/C=C(\C)CCC=C(C)C)c(O)c1OC [Example 1, reduced coenzyme Q10]",did not exhibit sticking property,9 % by weight,
COc1c(O)c(C)c(C/C=C(\C)CC/C=C(\C)CC/C=C(\C)CC/C=C(\C)CC/C=C(\C)CC/C=C(\C)CC/C=C(\C)CC/C=C(\C)CC/C=C(\C)CCC=C(C)C)c(O)c1OC [conventionally known reduced coenzyme Q10 crystal],,≥ 30 % by weight,≥ 4 % by weight
COc1c(O)c(C)c(C/C=C(\C)CC/C=C(\C)CC/C=C(\C)CC/C=C(\C)CC/C=C(\C)CC/C=C(\C)CC/C=C(\C)CC/C=C(\C)CC/C=C(\C)CCC=C(C)C)c(O)c1OC [reduced coenzyme Q10 crystal of the present invention],,≤ 15 % by weight,less than 4 % by weight
